Data set [1] relates to Rattus norvegicus. Nature of the data set: Ratio of rat urine volume collected from treatment group (10 mg/kg perorally) after 4 hours versus control group was determined. Format: functional.
Another data set deals with Vasopressin V2 receptor (Homo sapiens, UniProt P30518). Nature of the data set: Displacement of [3H]AVP from human vasopressin V2-receptor expressed in murine fibroblast cell (LV2) membranes. Format: cell-based.
The nature of data set [2]: Compound was tested for solubility in a model parenteral system consisting of 30% poltethylene glycol 200 (PEG-200)/water (*, mixture of amophorus and crystalline material). Format: ADME. Conditions: read-out: S.
For data set [3], the system named is Rattus norvegicus. Nature of the data set: Ratio of rat urine volume collected from treatment group (3 mg/kg perorally) after 4 hours versus control group was determined. It is filed as functional.
Data set [4] concerns Rattus norvegicus. Nature of the data set: Ratio of rat urine volume collected from treatment group (1 mg/kg perorally) after 4 hours versus control group was determined. Format: functional.
A short description of data set [5]: Compound was tested for solubility in a model parenteral system consisting of 30% poltethylene glycol 200 (PEG-200)/water. Format: ADME. Conditions: read-out: S.
The test system of data set [6] is Rattus norvegicus. Nature of the data set: Ratio of urine volume collected from treatment group (10 mg/kg perorally) after 4 hours versus control group was determined; No effect. It is filed as functional, organism-based.

In brackets after ≈: the same amount, converted by molar mass. Activity calls are given as the source filed them. The rule behind the calls is not given here.

Ratio, IC50 and solubility data for 14 compounds are collected here from ChEMBL document CHEMBL1133037, “The design, synthesis and physical chemical properties of novel human vasopressin V2-receptor antagonists optimized for parenteral delivery” (Bioorg Med Chem Lett, 2000).

By IC50 is commonly meant the point on the concentration scale where inhibition reaches its midpoint.

Vasopressin V2 receptor, sequence (P30518 whole entry): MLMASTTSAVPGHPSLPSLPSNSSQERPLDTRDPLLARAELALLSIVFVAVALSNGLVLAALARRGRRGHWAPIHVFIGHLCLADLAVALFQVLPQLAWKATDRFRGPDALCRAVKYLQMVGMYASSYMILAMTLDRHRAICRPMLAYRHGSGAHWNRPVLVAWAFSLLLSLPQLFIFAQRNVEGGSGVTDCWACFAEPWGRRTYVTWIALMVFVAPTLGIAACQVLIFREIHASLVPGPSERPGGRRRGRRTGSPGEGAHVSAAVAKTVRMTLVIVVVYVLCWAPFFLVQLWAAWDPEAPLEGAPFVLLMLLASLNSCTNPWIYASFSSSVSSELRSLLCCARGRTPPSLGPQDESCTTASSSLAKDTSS

With `Cc1ccc(F)cc1C(=O)Nc1ccc(C(=O)N2Cc3cccn3Cc3ccccc32)c(Cl)c1` [LIXIVAPTAN], in the data set on Rattus norvegicus [1], the Ratio stood at 7.4.
For `CN(C)CCN(C)Cc1ccc2n1Cc1ccccc1N(C(=O)c1ccc(NC(=O)c3ccccc3-c3ccccc3)cc1Cl)C2`, the Ratio in the data set on Rattus norvegicus [1] amounted to 4.2. The same compound yielded an IC50 at Vasopressin V2 receptor of 2.6 nM.
For the compound `CN(C)Cc1ccc2n1Cc1ccccc1N(C(=O)c1ccc(NC(=O)c3ccccc3-c3ccccc3)cc1Cl)C2`, in data set [2], the solubility was determined as 720 µg/mL (≈ 1250 µM). In addition, the Ratio with Rattus norvegicus [3] was 5.6; in the data set with Rattus norvegicus [4], 2.3; with Rattus norvegicus [1] it was 6.6. On Vasopressin V2 receptor, this compound registered an IC50 of 7.5 nM.
With `COc1cc(C(=O)N2Cc3ccc(CN(C)C)n3Cc3ccccc32)ccc1NC(=O)c1ccccc1-c1ccccc1`, in data set [5], the solubility is 2200 µg/mL (≈ 3850 µM). Moreover, the Ratio in the data set with Rattus norvegicus [1] is recorded as 5. The IC50 at Vasopressin V2 receptor is 5.2 nM.
In turn, `CN(C)C1CCN(C(=O)c2ccc3n2Cc2ccccc2N(C(=O)c2ccc(NC(=O)c4ccccc4-c4ccccc4)cc2Cl)C3)CC1` gave an IC50 on Vasopressin V2 receptor of 8.8 nM.
For `Cc1ccc(F)cc1C(=O)Nc1ccc(C(=O)N2Cc3ccc(C(=O)O)n3Cc3ccccc32)c(Cl)c1`, the Ratio entry in the data set with Rattus norvegicus [6] was “inactive”.
Take `CN1CCN(Cc2ccc3n2Cc2ccccc2N(C(=O)c2ccc(NC(=O)c4ccccc4-c4ccccc4)cc2Cl)C3)CC1`: in the data set with Rattus norvegicus [1], the Ratio was found to be 3.75. For the same compound, the IC50 on Vasopressin V2 receptor came to 1.3 nM.
In the case of `Cc1ccc(F)cc1C(=O)Nc1ccc(C(=O)N2Cc3ccc(CN(C)C)n3Cc3ccccc32)c(Cl)c1`, the Ratio in the data set with Rattus norvegicus [3] and with Rattus norvegicus [4] was 1.4 each time.
Turning to `COc1cc(NC(=O)c2ccccc2-c2ccccc2)ccc1C(=O)N1Cc2ccc(CN3CCN(C)CC3)n2Cc2ccccc21`, the solubility in data set [5] was determined as 300 µg/mL (≈ 479 µM). Moreover, in the data set on Rattus norvegicus [1], the Ratio was found to be 7.8. Moreover, the IC50 at Vasopressin V2 receptor came to 7 nM.
Take `CN(C)Cc1ccc2n1Cc1ccccc1N(C(=O)c1ccc(NC(=O)c3ccccc3-c3ccccc3)cc1O)C2`: the solubility in data set [2] was 1900 µg/mL (≈ 3410 µM). In addition, the Ratio in the data set on Rattus norvegicus [1] turned out to be 3.8. Further, the IC50 on Vasopressin V2 receptor came to 14.8 nM.
Regarding `CN(C)C1CCN(Cc2ccc3n2Cc2ccccc2N(C(=O)c2ccc(NC(=O)c4ccccc4-c4ccccc4)cc2Cl)C3)CC1`, in the data set on Rattus norvegicus [1], the Ratio came to 2.3. Also, the IC50 on Vasopressin V2 receptor is 2 nM.
As to `CN1CCN(C2CCN(C(=O)c3ccc4n3Cc3ccccc3N(C(=O)c3ccc(NC(=O)c5ccccc5-c5ccccc5)cc3Cl)C4)CC2)CC1.Cl`, the Ratio in the data set on Rattus norvegicus [1] worked out at 2.7.
Turning to `CN1CCN(C(=O)c2ccc3n2Cc2ccccc2N(C(=O)c2ccc(NC(=O)c4ccccc4-c4ccccc4)cc2Cl)C3)CC1.O=C(O)CC(O)(CC(=O)O)C(=O)O`, in data set [5], the solubility amounted to 1700 µg/mL.
Turning to `O=C(Nc1ccc(C(=O)N2Cc3ccc(CN4CCC(N5CCCCC5)CC4)n3Cc3ccccc32)c(Cl)c1)c1ccccc1-c1ccccc1`, the Ratio with Rattus norvegicus [1] is on record as 1.5. On Vasopressin V2 receptor, this compound registered an IC50 of 2.1 nM.
